molecular target: γ-secretase (Homo sapiens (Human), UniProt P49768); assay: Cellular γ-secretase assay (Aβ42 secretion, AlphaLisa); assay type: cell-based; conditions: inhibition of Aβ42 secretion; human neuroglioma H4 cells overexpressing human APP695 Swedish double mutation; 24 hr compound incubation
Procedure: Human neuroglioma H4 cells overexpressing human APP695 with the Swedish double mutation (K595N/M596L) were plated at 30,000 cells/well/100 μl in 96-well plates in IMDM media containing 10% FCS, 0.2 mg/l Hygromycin B and incubated at 37° C., 5% CO2.
3-4 hr post plating, compounds are a diluted in media and 50 μl is added as […] concentrate to achieve the final concentration. Compound incubation is performed for 24 hr. Final doses typically range from 4 μM down to 0.0013 μM in half-log steps resulting in an eight point dose response curve. Appropriate controls using vehicle only and reference compound were applied to this assay. The final concentration of Me2SO was 0.4%.
After incubation at 37° C., 5% CO2, the supernatant was subjected to quantification of secreted Aβ42 by the means of an AlphaLisa assay kit (Human Amyloid beta 1-42 Kit: Cat # AL203C, Perkin Elmer). 20 μl of the cell culture supernatant was transferred to an assay plate. Then 10 μl of a mixture of the AlphaLisa coupled capture antibody and the biotinylated detection antibody was added and incubated for 3 hours at room temperature while softly shaking the assay plate. After a further addition of 20 μl of the Donor beads the assay plate was incubated for 30 min at room temperature and constant shaking without exposure to direct light. The assay plate was then read on a Paradigm AlphaLisa Reader using the build-in program with excitation at 680 nm and emission at […]. The measured signals were then used to calculate IC50 values for inhibition of Aβ42 secretion by nonlinear regression fit analysis using XLfit 5.3 software (IDBS).

SMILES | EC50
CNc1nc(Nc2cnc(-n3cnc(C)c3)c(F)c2)nc2c1C(C)(C)CCN2c1ccc(F)cc1 [Example 36, N2-(5-Fluoro-6-(4-methyl-1H-imidazol-1-yl)pyridin-3-yl)-8-(4-fluorophenyl)-N4,5,5-trimethyl-5,6,7,8-tetrahydropyrido[2,3-d]pyrimidine-2,4-diamine] | 14 nM
CNc1nc(Nc2cnc(-n3cnc(C)c3)c(F)c2)nc2c1C(C)(C)CN2c1cccc(F)c1F [Example 42, 7-(2,3-Difluorophenyl)-N2-(5-fluoro-6-(4-methyl-1H-imidazol-1-yl)pyridin-3-yl)-N4,5,5-trimethyl-6,7-dihydro-5H-pyrrolo[2,3-d]pyrimidine-2,4-diamine] | 8 nM
CNc1nc(Nc2ccc(-n3cnc(C)n3)c(OC)c2)nc2c1C(C)(C)CN2c1ccc(F)c(F)c1 [Example 8, 7-(3,4-Difluorophenyl)-N2-(3-methoxy-4-(3-methyl-1H-1,2,4-triazol-1-yl)phenyl)-N4,5,5-trimethyl-6,7-dihydro-5H-pyrrolo[2,3-d]pyrimidine-2,4-diamine] | 5 nM
CNc1nc(Nc2ccc(-c3cnc(C)o3)c(F)c2)nc2c1C(C)(C)CN2c1ccc(F)cc1 [Example 16, N2-(3-Fluoro-4-(2-methyloxazol-5-yl)phenyl)-7-(4-fluorophenyl)-N4,5,5-trimethyl-6,7-dihydro-5H-pyrrolo[2,3-d]pyrimidine-2,4-diamine] | 30 nM
CNc1nc(Nc2ccc(-n3cnc(C)n3)cc2)nc2c1C(C)(C)CN2c1ccc(F)cc1 [Example 10, 7-(4-Fluorophenyl)-N4,5,5-trimethyl-N2-(4-(3-methyl-1H-1,2,4-triazol-1-yl)phenyl)-6,7-dihydro-5H-pyrrolo[2,3-d]pyrimidine-2,4-diamine] | 51 nM
CNc1nc(Nc2cnc(-n3cnc(C)c3)c(OC)c2)nc2c1C(C)(C)CN2c1ccc(F)cc1F [Example 20, 7-(2,4-Difluorophenyl)-N2-(5-methoxy-6-(4-methyl-1H-imidazol-1-yl)pyridin-3-yl)-N4,5,5-trimethyl-6,7-dihydro-5H-pyrrolo[2,3-d]pyrimidine-2,4-diamine] | 8 nM
CNc1nc(Nc2ccc(-n3cnc(C)n3)c(OC)c2)nc2c1C(C)(C)CN2C1CC(F)(F)C1 [Example 17, 7-(3,3-Difluorocyclobutyl)-N2-(3-methoxy-4-(3-methyl-1H-1,2,4-triazol-1-yl)phenyl)-N4,5,5-trimethyl-6,7-dihydro-5H-pyrrolo[2,3-d]pyrimidine-2,4-diamine] | 19 nM
CNc1nc(Nc2cnc(-n3cnc(Cl)c3)c(OC)c2)nc2c1C(C)(C)CN2c1ccc(F)cc1 [Example 6, N2-(6-(4-Chloro-1H-imidazol-1-yl)-5-methoxypyridin-3-yl)-7-(4-fluorophenyl)-N4,5,5-trimethyl-6,7-dihydro-5H-pyrrolo[2,3-d]pyrimidine-2,4-diamine] | 9 nM
CNc1nc(Nc2ccc(-n3cnc(C)n3)c(OC)c2)nc2c1C(C)CN2c1ccc(F)cc1 (stereo not shown) [Example 39, 7-(4-Fluorophenyl)-N2-(3-methoxy-4-(3-methyl-1H-1,2,4-triazol-1-yl)phenyl)-N4,5-dimethyl-6,7-dihydro-5H-pyrrolo[2,3-d]pyrimidine-2,4-diamine] | 6 nM
CNc1nc(Nc2ccc(-n3cc(C)nc3C)c(F)c2)nc2c1C(C)(C)CN2c1ccc(F)cc1 [Example 11, N2-(4-(2,4-Dimethyl-1H-imidazol-1-yl)-3-fluorophenyl)-7-(4-fluorophenyl)-N4,5,5-trimethyl-6,7-dihydro-5H-pyrrolo[2,3-d]pyrimidine-2,4-diamine] | 33 nM
CNc1nc(Nc2ccc(-n3cnc(C)n3)c(OC)c2)nc2c1C(C)(C)CN2C12CC(C(F)(F)F)(C1)C2 [Example 21, N2-(3-Methoxy-4-(3-methyl-1H-1,2,4-triazol-1-yl)phenyl)-N4,5,5-trimethyl-7-(3-(trifluoromethyl)bicyclo[1.1.1]pentan-1-yl)-6,7-dihydro-5H-pyrrolo[2,3-d]pyrimidine-2,4-diamine] | 72 nM
CNc1nc(Nc2ccc(-n3cnc(C)c3)c(F)c2)nc2c1[C@@H](C)CN2c1ccc(F)cc1 (single isomer, unassigned) [Example 46q, (R)— or (S)—N2-(3-Fluoro-4-(4-methyl-1H-imidazol-1-yl)phenyl)-7-(4-fluorophenyl)-N4,5-dimethyl-6,7-dihydro-5H-pyrrolo[2,3-d]pyrimidine-2,4-diamine] | 7 nM
CNc1nc(Nc2cnc(-n3cnc(C)c3)c(OC)c2)nc2c1C(C)(C)CN2C12CC(C(F)(F)F)(C1)C2 [Example 22, N2-(5-Methoxy-6-(4-methyl-1H-imidazol-1-yl)pyridin-3-yl)-N4,5,5-trimethyl-7-(3-(trifluoromethyl)bicyclo[1.1.1]pentan-1-yl)-6,7-dihydro-5H-pyrrolo[2,3-d]pyrimidine-2,4-diamine] | 30 nM
CNc1nc(Nc2ccc(-n3cnc(C)c3)c(F)c2)nc2c1[C@H](C)CN2c1ccc(F)cc1 (single isomer, unassigned) [Example 46p, (S)- or (R)—N2-(3-Fluoro-4-(4-methyl-1H-imidazol-1-yl)phenyl)-7-(4-fluorophenyl)-N4,5-dimethyl-6,7-dihydro-5H-pyrrolo[2,3-d]pyrimidine-2,4-diamine] | 5 nM
CNc1nc(Nc2ccc(-n3cnc(C)c3)c(F)c2)nc2c1CCN2c1ccc(F)cc1 [Example 38, N2-(3-Fluoro-4-(4-methyl-1H-imidazol-1-yl)phenyl)-7-(4-fluorophenyl)-N4-methyl-6,7-dihydro-5H-pyrrolo[2,3-d]pyrimidine-2,4-diamine] | 6 nM
CNc1nc(Nc2cnc(-n3cnc(C)c3)c(OC)c2)nc2c1C(C)(C)CN2c1ccc(F)c(F)c1 [Example 15, 7-(3,4-Difluorophenyl)-N2-(5-methoxy-6-(4-methyl-1H-imidazol-1-yl)pyridin-3-yl)-N4,5,5-trimethyl-6,7-dihydro-5H-pyrrolo[2,3-d]pyrimidine-2,4-diamine] | 8 nM
COc1cc(Nc2nc(NCCO)c3c(n2)N(c2ccc(F)cc2)CC3(C)C)cnc1-n1cnc(C)c1 [Example 29, 2-((7-(4-Fluorophenyl)-2-((5-methoxy-6-(4-methyl-1H-imidazol-1-yl)pyridin-3-yl)amino)-5,5-dimethyl-6,7-dihydro-5H-pyrrolo[2,3-d]pyrimidin-4-yl)amino)ethanol] | 6 nM
CNc1nc(Nc2cnc(-n3cnc(C)c3)c(OC)c2)nc2c1C(C)(C)CN2c1ccc(F)cc1 [Example 7, 7-(4-Fluorophenyl)-N2-(5-methoxy-6-(4-methyl-1H-imidazol-1-yl)pyridin-3-yl)-N4,5,5-trimethyl-6,7-dihydro-5H-pyrrolo[2,3-d]pyrimidine-2,4-diamine] | 5 nM
CNc1nc(Nc2cnc(-n3cnc(C)c3)c(OC)c2)nc2c1C(C)(C)CN2c1cccc(F)c1F [Example 44, 7-(2,3-Difluorophenyl)-N2-(5-methoxy-6-(4-methyl-1H-imidazol-1-yl)pyridin-3-yl)-N4,5,5-trimethyl-6,7-dihydro-5H-pyrrolo[2,3-d]pyrimidine-2,4-diamine] | 5 nM
Cc1ncn(-c2ccc(Nc3nc(NCCO)c4c(n3)N(c3ccc(F)cc3)CC4(C)C)cc2F)n1 [Example 31, 2-((2-((3-Fluoro-4-(3-methyl-1H-1,2,4-triazol-1-yl)phenyl)amino)-7-(4-fluorophenyl)-5,5-dimethyl-6,7-dihydro-5H-pyrrolo[2,3-d]pyrimidin-4-yl)amino)ethanol] | 15 nM
CNc1nc(Nc2ccc(-n3cnc(C)n3)c(OC)c2)nc2c1C(C)(C)CN2c1ccc(F)cc1 [Example 1, 7-(4-Fluorophenyl)-N2-(3-methoxy-4-(3-methyl-1H-1,2,4-triazol-1-yl)phenyl)-N4,5,5-trimethyl-6,7-dihydro-5H-pyrrolo[2,3-d]pyrimidine-2,4-diamine] | 5 nM
CNc1nc(Nc2cnc(-n3cnc(C)c3)c(OC)c2)nc2c1CCN2c1ccc(F)cc1 [Example 33, 7-(4-Fluorophenyl)-N2-(5-methoxy-6-(4-methyl-1H-imidazol-1-yl)pyridin-3-yl)-N4-methyl-6,7-dihydro-5H-pyrrolo[2,3-d]pyrimidine-2,4-diamine] | 6 nM
